# Read-outs that look alike come from different tables or passages of the source.
# Legend:
# Enterococcus faecalis = test: Adjuvant broth microdilution (antibiotic MIC with SP-BIM at 50 μg/mL); type: cell-based; conditions: antibiotic alone
# Escherichia coli [1] = test: microbe, parasite or virus in culture; type: cell-based; conditions: antibiotic alone, Table 6, read-out: MIC of antibiotic, No compound
# Klebsiella pneumoniae = test: Checkerboard synergy (FICI) of antibiotics with SP-BIM; type: cell-based; conditions: for MIC: 24 h, antibiotic alone, read-out: MIC antibiotic only
# Staphylococcus aureus = test: as above; type: cell-based; conditions: Staphylococcus aureus, Staphylococcus aureus; for MIC: 24 h, antibiotic alone, read-out: MIC antibiotic only
# Streptococcus pneumoniae [2] = test: as above; type: cell-based; conditions: Streptococcus pneumonia (title: Streptococcus pyogenes)
# Enterobacter cloacae = test: Adjuvant broth microdilution (antibiotic MIC with SP-BIM at 50 μg/mL); type: cell-based; conditions: antibiotic alone
# Bacillus cereus = test: Checkerboard synergy (FICI) of antibiotics with SP-BIM; type: cell-based; conditions: for MIC: 24 h, antibiotic alone, read-out: MIC antibiotic only
# Candida albicans = test: as above; parameters: MIC SP-BIM 13 only / MIC in combination: Antibiotic / MIC antibiotic only: unit not given beside the values
# [3] = test system: clinical antibiotic resistant isolates of MRSA; test: Checkerboard resistance breaking by SP-BIM 13; type: cell-based, Staphylococcus aureus; conditions: for Rescue concentration of SP-BIM 13: SP-BIM 13 with the labelled antibiotic; for MIC of antibiotic only: antibiotic alone; for FIC antibiotic: combination with SP-BIM 13; for MIC of antibiotic in combination: with SP-BIM 13 at rescue concentration
# MRSA = test: Adjuvant broth microdilution (antibiotic MIC with SP-BIM at 50 μg/mL); type: cell-based, Staphylococcus aureus; conditions: antibiotic alone
# Escherichia coli [4] = test: Checkerboard synergy (FICI) of antibiotics with SP-BIM; parameters: MIC SP-BIM 13 only / MIC in combination: Antibiotic: unit not given beside the values; conditions: for MIC: 24 h
# Streptococcus pneumoniae [5] = test: Adjuvant broth microdilution (antibiotic MIC with SP-BIM at 50 μg/mL); type: cell-based; conditions: Streptococcus pneumoniae; Streptococcus pneumonia; antibiotic alone; Table 5; read-out: MIC of antibiotic, No compound
# [6] = SP-BIM 9 in combination with the labelled antibiotic
# [7] = SP-BIM 13 in combination with the labelled antibiotic
# [8] = antibiotic in combination with SP-BIM 9
# [9] = antibiotic in combination with SP-BIM 13
# [10] = MIC of the antibiotic in combination with SP-BIM 13
# [11] = MRSA strain 5872, antibiotic + SP-BIM 13
structure (smiles),measurement,setting,value
"CC[C@H]1OC(=O)[C@H](C)[C@@H](O[C@H]2C[C@@](C)(OC)[C@@H](O)[C@H](C)O2)[C@H](C)[C@@H](O[C@@H]2O[C@H](C)C[C@H](N(C)C)[C@H]2O)[C@](C)(O)C[C@@H](C)C(=O)[C@H](C)[C@@H](O)[C@]1(C)O [Erythromycin, erythromycin]","MIC of antibiotic, No Compound",Enterococcus faecalis,250 µg/mL
same,MIC,Escherichia coli [1],> 250 µg/mL
same,MIC,Klebsiella pneumoniae; SP-BIM 9 checkerboard,250 µg/mL
same,MIC,Klebsiella pneumoniae; SP-BIM 13 checkerboard,16 µg/mL
same,FIC of SP-BIM 9,Klebsiella pneumoniae; [6],0.5
same,FIC of SP-BIM 13,Klebsiella pneumoniae; [7],1.0
same,Interpretation,Klebsiella pneumoniae; antibiotic + SP-BIM 9,Additive (Additive: FICI>0.5-1.0)
same,Σ FIC,Klebsiella pneumoniae; antibiotic + SP-BIM 9,<0.8
same,Interpretation,Klebsiella pneumoniae; antibiotic + SP-BIM 13,Indifferent (Indifferent: FICI>1.0-4.0)
same,Σ FIC,Klebsiella pneumoniae; antibiotic + SP-BIM 13,<2.0
same,"MIC in combination, Antibiotic",Klebsiella pneumoniae; [8],63 µg/mL
same,"MIC in combination, Antibiotic",Klebsiella pneumoniae; [9],16 µg/mL
same,FIC of antibiotic,Klebsiella pneumoniae; in combination with SP-BIM 9,0.252
same,FIC of antibiotic,Klebsiella pneumoniae; in combination with SP-BIM 13,1.0
same,MIC,Staphylococcus aureus; SP-BIM 9 checkerboard,0.1 µg/mL
same,MIC,Staphylococcus aureus; SP-BIM 13 checkerboard,0.1 µg/mL
same,FIC of SP-BIM 9,Staphylococcus aureus; [6],0.50
same,FIC of SP-BIM 13,Staphylococcus aureus; [7],0.5
same,Interpretation,Staphylococcus aureus; antibiotic + SP-BIM 9,Additive (Additive: FICI>0.5-1.0)
same,Σ FIC,Staphylococcus aureus; antibiotic + SP-BIM 9,<0.70
same,Interpretation,Staphylococcus aureus; antibiotic + SP-BIM 13,Additive (Additive: FICI>0.5-1.0)
same,Σ FIC,Staphylococcus aureus; antibiotic + SP-BIM 13,0.7
same,"MIC in combination, Antibiotic",Staphylococcus aureus; [8],0.05 µg/mL
same,"MIC in combination, Antibiotic",Staphylococcus aureus; [9],0.02 µg/mL
same,FIC of antibiotic,Staphylococcus aureus; in combination with SP-BIM 9,0.20
same,FIC of antibiotic,Staphylococcus aureus; in combination with SP-BIM 13,0.2
same,FIC of SP-BIM 9,Streptococcus pneumoniae [2]; [6],1.00
same,Interpretation,Streptococcus pneumoniae [2]; antibiotic + SP-BIM 9,Indifference
same,Σ FIC,Streptococcus pneumoniae [2]; antibiotic + SP-BIM 9,<2.00
same,"MIC in combination, Antibiotic",Streptococcus pneumoniae [2]; [8],>250 µg/mL
same,FIC of antibiotic,Streptococcus pneumoniae [2]; in combination with SP-BIM 9,1.00
same,MIC,"Streptococcus pneumoniae [2]; Streptococcus pneumoniae, 24 h, antibiotic alone, SP-BIM 9 checkerboard, read-out: MIC antibiotic only",> 250 µg/mL
same,"MIC of antibiotic, No Compound",Enterobacter cloacae,>250 µg/mL
same,MIC,Bacillus cereus; SP-BIM 9 checkerboard,16 µg/mL
same,MIC,Bacillus cereus; SP-BIM 13 checkerboard,16 µg/mL
same,"MIC in combination, SP-BIM 9",Bacillus cereus; SP-BIM 9 concentration in combination with the labelled antibiotic,>250 µg/mL
same,FIC of SP-BIM 9,Bacillus cereus; [6],1
same,FIC of SP-BIM 13,Bacillus cereus; [7],0.5
same,Interpretation,Bacillus cereus; antibiotic + SP-BIM 9,Indifferent (Indifferent: FICI>1.0-4.0)
same,Σ FIC,Bacillus cereus; antibiotic + SP-BIM 9,<2.0
same,Interpretation,Bacillus cereus; antibiotic + SP-BIM 13,Synergy (Synergy: FICI≤0.5)
same,Σ FIC,Bacillus cereus; antibiotic + SP-BIM 13,0.5
same,"MIC in combination, Antibiotic",Bacillus cereus; [8],16 µg/mL
same,"MIC in combination, Antibiotic",Bacillus cereus; [9],0.05 µg/mL
same,FIC of antibiotic,Bacillus cereus; in combination with SP-BIM 9,1
same,FIC of antibiotic,Bacillus cereus; in combination with SP-BIM 13,0.01
same,MIC,"Candida albicans; 24 h, read-out: MIC antibiotic only",16 µg/mL
same,MIC in combination: Antibiotic,Candida albicans; [10],1
same,FIC of SP-BIM 13,Candida albicans; [7],1.0
same,Interpretation,Candida albicans; antibiotic + SP-BIM 13,Indifferent (Indifferent: FICI>1.0-4.0)
same,Σ FIC,Candida albicans; antibiotic + SP-BIM 13,<1.1
same,FIC of antibiotic,Candida albicans; combination with SP-BIM 13,0.1
same,Rescue concentration of SP-BIM 13,[3]; MRSA strain 5872,32 µg/mL
same,Interpretation,[3]; [11],Synergy (Synergy: FICI≤0.5)
same,Σ FIC,[3]; [11],<0.14
same,MIC of antibiotic only,[3]; MRSA strain 5872,250 µg/mL
same,FIC antibiotic,[3]; MRSA strain 5872,0.016
same,MIC of antibiotic in combination,[3]; MRSA strain 5872,4 µg/mL
same,Rescue concentration of SP-BIM 13,[3]; MRSA strain 10132,32 µg/mL
same,Interpretation,"[3]; MRSA strain 10132, antibiotic + SP-BIM 13",Synergy (Synergy: FICI≤0.5)
same,MIC of antibiotic only,[3]; MRSA strain 10132,250 µg/mL
same,FIC antibiotic,[3]; MRSA strain 10132,0.004
same,MIC of antibiotic in combination,[3]; MRSA strain 10132,1 µg/mL
same,MIC,"MRSA; Staphylococcus aureus, Table 4, read-out: MIC of antibiotic, No compound",4 µg/mL
same,"MIC of antibiotic, No Compound",MRSA; Table 8 (series SP-BIMs 21-29),8 µg/mL
same,MIC,"Escherichia coli [4]; read-out: MIC antibiotic only, Escherichia coli, antibiotic alone",16 µg/mL
same,MIC,"Escherichia coli [4]; read-out: MIC antibiotic only, Escherichia coli, antibiotic alone, SP-BIM 9 checkerboard",250 µg/mL
same,MIC in combination: Antibiotic,Escherichia coli [4]; [10],16
same,FIC of SP-BIM 9,Escherichia coli [4]; [6],1
same,FIC of SP-BIM 13,Escherichia coli [4]; [7],1.0
same,Interpretation,Escherichia coli [4]; antibiotic + SP-BIM 9,Indifferent (Indifferent: FICI>1.0-4.0)
same,Σ FIC,Escherichia coli [4]; antibiotic + SP-BIM 9,<2.0
same,Interpretation,Escherichia coli [4]; antibiotic + SP-BIM 13,Indifferent (Indifferent: FICI>1.0-4.0)
same,Σ FIC,Escherichia coli [4]; antibiotic + SP-BIM 13,<2.0
same,"MIC in combination, Antibiotic",Escherichia coli [4]; [8],250 µg/mL
same,FIC of antibiotic,Escherichia coli [4]; combination with SP-BIM 13,1.0
same,FIC of antibiotic,Escherichia coli [4]; in combination with SP-BIM 9,1
same,MIC,Streptococcus pneumoniae [5],4 µg/mL
